B1: N-to-C cyclised prochlorosin 16RGD (OaAEP1-cyclised lanthipeptide) (peptide)
chain: cyclo(AACHNHAPSMPPSYWRGDCN)
modifications: thioether (positions not given here); also: lanthionine linkages installed by ProcM, places not given here, thioether: lanthionine
B2: N-to-C cyclised prochlorosin 15RGD (OaAEP1-cyclised lanthipeptide) (peptide)
chain: cyclo(AACHNHAPSMPPSYRGDECN)
modifications: thioether (positions not given here); also: lanthionine linkages installed by ProcM, places not given here, thioether: lanthionine

Columns and labels:
[1] = tested on: aminopeptidase; test: Aminopeptidase challenge of cyclised and uncyclised lanthipeptides; details: compared to the uncyclised compounds; Fig. S7
[2] = target: αvβ3 integrin (Homo sapiens, UniProt P05106+P06756); assay type: binding; details: ratio of Ki values, FP competition
αvβ3 integrin (Homo sapiens, UniProt P05106+P06756), sequence (P06756 31-992 limits assumed): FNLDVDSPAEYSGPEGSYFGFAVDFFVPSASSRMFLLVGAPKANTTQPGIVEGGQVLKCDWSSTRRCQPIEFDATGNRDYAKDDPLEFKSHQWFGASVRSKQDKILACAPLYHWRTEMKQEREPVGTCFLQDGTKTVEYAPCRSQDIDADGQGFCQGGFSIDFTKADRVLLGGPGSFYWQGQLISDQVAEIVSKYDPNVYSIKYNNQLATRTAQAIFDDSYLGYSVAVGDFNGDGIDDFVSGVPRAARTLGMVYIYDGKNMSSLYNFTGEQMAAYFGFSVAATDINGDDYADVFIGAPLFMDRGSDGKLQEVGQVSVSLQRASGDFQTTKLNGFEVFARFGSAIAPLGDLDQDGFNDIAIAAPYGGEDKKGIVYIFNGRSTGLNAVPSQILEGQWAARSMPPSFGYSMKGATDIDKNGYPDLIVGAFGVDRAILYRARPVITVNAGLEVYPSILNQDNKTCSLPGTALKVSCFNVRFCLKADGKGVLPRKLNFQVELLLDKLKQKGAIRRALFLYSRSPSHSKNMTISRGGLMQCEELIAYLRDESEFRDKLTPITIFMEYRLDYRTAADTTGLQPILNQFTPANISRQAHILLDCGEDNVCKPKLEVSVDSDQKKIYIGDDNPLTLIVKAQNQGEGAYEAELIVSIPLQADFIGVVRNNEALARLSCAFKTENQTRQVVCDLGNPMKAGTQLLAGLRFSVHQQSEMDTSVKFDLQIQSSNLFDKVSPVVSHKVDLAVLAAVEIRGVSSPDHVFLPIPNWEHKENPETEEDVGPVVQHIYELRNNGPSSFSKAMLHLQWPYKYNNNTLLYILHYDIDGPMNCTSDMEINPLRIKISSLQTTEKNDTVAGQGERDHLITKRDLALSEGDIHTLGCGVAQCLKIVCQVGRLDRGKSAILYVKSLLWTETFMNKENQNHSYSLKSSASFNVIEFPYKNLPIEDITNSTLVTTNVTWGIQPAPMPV
αvβ3 integrin (Homo sapiens, UniProt P05106+P06756), sequence (P05106 27-718 limits assumed): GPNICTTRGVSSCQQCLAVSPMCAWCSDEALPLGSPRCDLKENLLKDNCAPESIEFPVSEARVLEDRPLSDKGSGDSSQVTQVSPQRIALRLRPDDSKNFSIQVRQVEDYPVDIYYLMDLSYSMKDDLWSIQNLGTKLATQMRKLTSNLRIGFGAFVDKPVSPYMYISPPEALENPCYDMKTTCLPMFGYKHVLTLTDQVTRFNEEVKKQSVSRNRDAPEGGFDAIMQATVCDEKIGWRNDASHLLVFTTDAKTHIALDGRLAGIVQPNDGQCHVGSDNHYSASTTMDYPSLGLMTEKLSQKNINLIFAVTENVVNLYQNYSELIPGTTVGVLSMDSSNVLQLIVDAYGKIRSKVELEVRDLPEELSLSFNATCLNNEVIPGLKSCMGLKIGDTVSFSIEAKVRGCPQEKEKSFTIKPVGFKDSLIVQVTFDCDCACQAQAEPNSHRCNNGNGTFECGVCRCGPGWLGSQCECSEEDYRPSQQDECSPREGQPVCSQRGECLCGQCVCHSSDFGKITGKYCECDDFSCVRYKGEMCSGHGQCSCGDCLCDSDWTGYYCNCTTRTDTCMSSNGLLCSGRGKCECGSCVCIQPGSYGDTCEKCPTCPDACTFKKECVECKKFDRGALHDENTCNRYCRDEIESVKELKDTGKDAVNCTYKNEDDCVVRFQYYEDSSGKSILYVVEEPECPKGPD

[3] = target: αvβ3 integrin (UniProt P06756 31-1048; P05106 27-788); test: fluorescence polarisation; competition of the lanthipeptides against fluorescently labelled c(RGDyK) for αvβ3 integrin; Ki from competition curves; details: both partners purified
αvβ3 integrin (UniProt P06756 31-1048; P05106 27-788), sequence (P06756 31-1048, chain 1 of 2): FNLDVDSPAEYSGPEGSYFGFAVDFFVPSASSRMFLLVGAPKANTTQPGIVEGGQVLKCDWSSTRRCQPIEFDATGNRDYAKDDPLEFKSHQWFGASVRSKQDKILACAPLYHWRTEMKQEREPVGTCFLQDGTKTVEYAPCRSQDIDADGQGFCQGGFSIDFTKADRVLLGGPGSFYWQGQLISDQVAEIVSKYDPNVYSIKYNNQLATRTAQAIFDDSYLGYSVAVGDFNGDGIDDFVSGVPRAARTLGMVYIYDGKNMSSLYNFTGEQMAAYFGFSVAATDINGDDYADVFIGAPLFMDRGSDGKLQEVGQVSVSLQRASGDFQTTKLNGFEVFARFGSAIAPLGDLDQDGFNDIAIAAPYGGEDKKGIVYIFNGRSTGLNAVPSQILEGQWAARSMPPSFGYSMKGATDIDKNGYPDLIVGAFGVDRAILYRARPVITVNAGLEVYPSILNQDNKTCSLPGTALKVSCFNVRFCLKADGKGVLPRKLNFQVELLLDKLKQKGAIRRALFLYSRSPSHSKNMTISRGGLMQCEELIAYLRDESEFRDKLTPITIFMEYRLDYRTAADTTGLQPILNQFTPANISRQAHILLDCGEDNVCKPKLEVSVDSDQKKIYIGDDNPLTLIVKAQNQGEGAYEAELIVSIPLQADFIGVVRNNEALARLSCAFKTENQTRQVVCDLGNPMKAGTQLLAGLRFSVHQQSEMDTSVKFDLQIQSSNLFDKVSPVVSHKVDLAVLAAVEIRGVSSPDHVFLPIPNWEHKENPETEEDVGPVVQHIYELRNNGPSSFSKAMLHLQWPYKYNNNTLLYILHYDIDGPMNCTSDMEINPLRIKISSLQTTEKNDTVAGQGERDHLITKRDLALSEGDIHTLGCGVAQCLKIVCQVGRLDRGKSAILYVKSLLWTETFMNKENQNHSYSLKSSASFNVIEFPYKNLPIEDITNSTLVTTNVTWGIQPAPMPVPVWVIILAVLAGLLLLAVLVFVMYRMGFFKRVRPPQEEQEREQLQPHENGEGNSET
αvβ3 integrin (UniProt P06756 31-1048; P05106 27-788), sequence (P05106 27-788, chain 2 of 2): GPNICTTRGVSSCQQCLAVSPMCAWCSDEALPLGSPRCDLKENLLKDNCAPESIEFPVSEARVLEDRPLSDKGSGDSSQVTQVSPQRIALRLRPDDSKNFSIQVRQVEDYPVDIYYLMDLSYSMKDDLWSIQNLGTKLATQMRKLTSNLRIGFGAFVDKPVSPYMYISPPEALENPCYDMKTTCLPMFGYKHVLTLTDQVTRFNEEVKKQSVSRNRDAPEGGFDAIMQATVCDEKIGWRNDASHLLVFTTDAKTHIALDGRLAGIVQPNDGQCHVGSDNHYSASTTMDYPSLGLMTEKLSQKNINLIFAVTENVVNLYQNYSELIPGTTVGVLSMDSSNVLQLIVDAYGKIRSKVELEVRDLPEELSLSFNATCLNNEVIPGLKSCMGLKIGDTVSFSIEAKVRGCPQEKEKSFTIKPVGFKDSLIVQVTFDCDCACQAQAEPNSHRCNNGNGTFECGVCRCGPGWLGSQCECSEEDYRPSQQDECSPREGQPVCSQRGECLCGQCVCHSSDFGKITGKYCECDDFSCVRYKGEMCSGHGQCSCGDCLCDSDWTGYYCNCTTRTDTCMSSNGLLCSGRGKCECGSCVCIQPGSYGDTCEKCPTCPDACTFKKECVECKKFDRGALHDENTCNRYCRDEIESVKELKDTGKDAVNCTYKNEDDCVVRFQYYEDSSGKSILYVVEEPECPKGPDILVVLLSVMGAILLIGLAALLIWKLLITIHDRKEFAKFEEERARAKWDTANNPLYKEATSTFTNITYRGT

| Molecule | resistance to aminopeptidase [1] | fold higher affinity for αvβ3 integrin, N-to-C cyclised vs noncyclised [2] [fold] | Ki [3] [µM] |
| --- | --- | --- | --- |
| CSCC[C@@H]1NC(=O)[C@H]2CSC[C@H](NC(=O)[C@H](C)NC(=O)[C@H](C)NC(=O)[C@H](CC(N)=O)NC(=O)[C@@H]3CSC[C@@H](NC(=O)[C@@H]4CCCN4C(=O)[C@@H]4CCCN4C1=O)C(=O)N[C@@H](Cc1ccc(O)cc1)C(=O)N[C@@H](CCCNC(=N)N)C(=O)NCC(=O)N[C@@H](CC(=O)O)C(=O)N[C@@H](CCC(=O)O)C(=O)N3)C(=O)N[C@@H](Cc1c[nH]cn1)C(=O)N[C@@H](CC(N)=O)C(=O)N[C@@H](Cc1c[nH]cn1)C(=O)N[C@@H](C)C(=O)N1CCC[C@H]1C(=O)N2 [c15RGD] | resistant to aminopeptidase | 4 |  |
| CSCC[C@@H]1NC(=O)[C@H]2CSC[C@H](NC(=O)[C@H](C)NC(=O)[C@H](C)NC(=O)[C@H](CC(N)=O)NC(=O)[C@@H]3CSC[C@@H](NC(=O)[C@@H]4CCCN4C(=O)[C@@H]4CCCN4C1=O)C(=O)N[C@@H](Cc1ccc(O)cc1)C(=O)N[C@@H](Cc1c[nH]c4ccccc14)C(=O)N[C@@H](CCCNC(=N)N)C(=O)NCC(=O)N[C@@H](CC(=O)O)C(=O)N3)C(=O)N[C@@H](Cc1c[nH]cn1)C(=O)N[C@@H](CC(N)=O)C(=O)N[C@@H](Cc1c[nH]cn1)C(=O)N[C@@H](C)C(=O)N1CCC[C@H]1C(=O)N2 [c16RGD] | resistant to aminopeptidase |  |  |
| B1 |  |  | 0.28 ± 0.03 |
| B2 |  |  | 7.7 ± 1.3 |

Source: paper PMC11189026 (Chemical communications (Cambridge, England), 2024)
